Experimental data as given in patent US20120115827A1, “3-AMINOBENZAMIDE COMPOUNDS AND VANILLOID RECEPTOR SUBTYPE 1 (VR1) INHIBITORS” (Japan Tobacco Inc., priority 2004, published 2012).

Molecular target: T1, human VR1 (Homo sapiens, UniProt Q8NER1)
T1 construct: expressed in transfected cells
Assay: Inhibition of Ca2+ entry in cells caused by proton (VR1 agonist)
Format: cell-based
Settings: Rat glioma (C6BU1) cells stably expressing human VR1; proton stimulation to pH 5.5; Fura 2-AM fluorescence; read-out: In vitro IC50
Procedure: The assay for evaluation of VR1 inhibition by the inventive compounds will be described below. The assay was intended to evaluate in vitro inhibition of Ca^2+ entry in cells caused by proton, one of the VR1 agonists.
Rat glioma (C6BU1) cells stably expressing human VR1 were suspended in 20 mM MES buffer (at pH 6.8, contg. 20 mM 2-morpholinoethanesulfonate (referred to as MES hereinafter), 115 mM NaCl, 5 mM KCl, 1 mM MgCl2 and 14 mM D-glucose) to make a cell density of 1×10^6 cells/mL. A fluorescent dye, Fura 2-AM solution (Dojindo Corporate, Cat. No. 343-05401) was added to the suspension to make a 5 μM concentration thereof. Further, Pluronic F-127 (Wako Pure Chemical Industries, Ltd., Cat. No. P6866) was added to make a 0.1% content thereof. Then, the suspension was incubated at 37° C. for 30 min. The cells were harvested and washed three times with 20 mM MES buffer. The cells were suspended again to make a cell density of 5×10^5 cells/mL. A 500-μL portion of the suspension was taken with a cuvette (MC MEDICAL, INC., Cat. No. SSR3121), to which […] MES buffer containing 250 mM CaCl2 was added to incorporate Ca^2+ into the cells. At the same time, 5 μL of a test compound solution (in a range of 100 μM to 10 nM in DMSO) was also added to provide a final concentration thereof in a range of 1 μM to 0.1 nM. Alternatively, 5 μl of DMSO was added as control to provide a final concentration of 1% DMSO. The suspension was set in an intracellular ionometer (CAF-110; JASCO) 10 min after those additions. The cells were stimulated with protons by addition of 60 μL of 20 mM MES buffer at pH 1.1 to the suspension to set its pH at 5.5. The activity of the test compound was determined as a difference between the minimum of fluorescence intensity before agonist stimulation and its maximum after the stimulation. The value of IC50 was derived from percentage of inhibition by the test compound compared with the control.

T1 sequence (Q8NER1 whole entry): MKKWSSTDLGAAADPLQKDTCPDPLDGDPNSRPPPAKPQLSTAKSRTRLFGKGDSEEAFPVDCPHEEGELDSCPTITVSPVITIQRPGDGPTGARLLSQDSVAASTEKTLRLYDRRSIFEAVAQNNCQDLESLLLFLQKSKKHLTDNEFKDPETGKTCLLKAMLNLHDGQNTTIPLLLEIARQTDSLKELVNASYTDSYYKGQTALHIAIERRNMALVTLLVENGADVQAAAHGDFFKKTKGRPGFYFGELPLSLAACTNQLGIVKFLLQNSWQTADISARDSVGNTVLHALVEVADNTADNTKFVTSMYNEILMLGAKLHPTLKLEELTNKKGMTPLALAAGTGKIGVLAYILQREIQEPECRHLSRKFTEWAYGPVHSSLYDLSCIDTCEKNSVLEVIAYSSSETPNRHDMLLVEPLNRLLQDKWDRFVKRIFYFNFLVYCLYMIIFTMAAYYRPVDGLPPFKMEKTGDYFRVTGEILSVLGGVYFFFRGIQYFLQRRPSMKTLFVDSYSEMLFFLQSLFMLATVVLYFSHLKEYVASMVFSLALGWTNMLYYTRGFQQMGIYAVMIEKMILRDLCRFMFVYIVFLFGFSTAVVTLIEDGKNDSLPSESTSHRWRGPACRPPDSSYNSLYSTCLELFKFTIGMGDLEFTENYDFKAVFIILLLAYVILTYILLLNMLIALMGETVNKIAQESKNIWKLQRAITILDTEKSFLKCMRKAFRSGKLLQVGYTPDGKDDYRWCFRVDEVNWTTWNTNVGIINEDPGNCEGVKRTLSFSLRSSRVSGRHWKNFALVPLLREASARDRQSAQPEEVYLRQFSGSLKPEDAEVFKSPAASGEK

SMILES | IC50
CN(C)C(=O)CN(c1cc(C(=O)Nc2ccc(C(C)(C)C)cc2)ccc1Cl)c1ncccc1Cl [Example 49, 4-chloro-3-[N-(3-chloropyridin-2-yl)-N—(N,N-dimethylcarbamoylmethyl)amino]-N-(4-tert-butylphenyl)-benzamide] | 0.1 to 1 µM
NC(=O)CN(c1cc(C(=O)Nc2ccc(C(F)(F)F)cc2)ccc1Cl)c1ncccc1Cl [Example 59, 4-chloro-3-[N-(3-chloropyridin-2-yl)-N-(carbamoylmethyl)amino]-N-(4-trifluoromethylphenyl)-benzamide] | ≤ 0.1 µM
NC(=O)CN(c1cc(C(=O)Nc2ccc(OC(F)(F)F)cc2)ccc1Cl)c1ncccc1Cl [Example 60, 4-chloro-3-[N-(3-chloropyridin-2-yl)-N-(carbamoylmethyl)amino]-N-(4-trifluoromethoxyphenyl)-benzamide] | ≤ 0.1 µM
CC(C)COc1ccc(NC(=O)c2ccc(Cl)c(N(CC(N)=O)c3ncccc3Cl)c2)cc1 [Example 61, 4-chloro-3-[N-(3-chloropyridin-2-yl)-N-(carbamoylmethyl)amino]-N-(4-isobutyloxyphenyl)-benzamide] | ≤ 0.1 µM
NC(=O)CN(c1cc(C(=O)Nc2ccc(N3CCCCC3)c(F)c2)ccc1Cl)c1ncccc1Cl [Example 62, 4-chloro-3-[N-(3-chloropyridin-2-yl)-N-(carbamoylmethyl)amino]-N-(3-fluoro-4-piperidinophenyl)-benzamide] | ≤ 0.1 µM
Cc1ccc(C(=O)Nc2ccc(C(F)(F)F)cc2)cc1N(CC(N)=O)c1ncccc1Cl [Example 63, 3-[N-(3-chloropyridin-2-yl)-N-(carbamoylmethyl)amino]-4-methyl-N-(4-trifluoromethylphenyl)-benzamide] | ≤ 0.1 µM
Cc1ccc(C(=O)Nc2ccc(OC(F)(F)F)cc2)cc1N(CC(N)=O)c1ncccc1Cl [Example 64, 3-[N-(3-chloropyridin-2-yl)-N-(carbamoylmethyl)amino]-4-methyl-N-(4-trifluoromethoxyphenyl)-benzamide] | ≤ 0.1 µM
Cc1ccc(C(=O)Nc2ccc(OCC(C)C)cc2)cc1N(CC(N)=O)c1ncccc1Cl [Example 65] | ≤ 0.1 µM
CNC(=O)CN(c1cc(C(=O)Nc2ccc(C(F)(F)F)cc2)ccc1Cl)c1ncccc1Cl [Example 66, 4-chloro-3-[N-(3-chloropyridin-2-yl)-N-(N-methylcarbamoylmethyl)amino]-N-(4-trifluoromethylphenyl)-benzamide] | ≤ 0.1 µM
NC(=O)CN(c1cc(C(=O)Nc2ccc(OC(F)(F)F)cc2)ccc1Cl)c1ncc(C(F)(F)F)cc1Cl [Example 67, 4-chloro-3-[N-(3-chloro-5-trifluoromethylpyridin-2-yl)-N-(carbamoylmethyl)amino]-N-(4-trifluoromethoxyphenyl)-benzamide] | ≤ 0.1 µM
NC(=O)CN(c1cc(C(=O)Nc2ccc(C(F)(F)F)cc2)ccc1Cl)c1ncc(C(F)(F)F)cc1Cl [Example 68, 4-chloro-3-[N-(3-chloro-5-trifluoromethylpyridin-2-yl)-N-(carbamoylmethyl)amino]-N-(4-trifluoromethylphenyl)-benzamide] | ≤ 0.1 µM
NC(=O)CN(c1ccc(Cl)cn1)c1cc(C(=O)Nc2ccc(OC(F)(F)F)cc2)ccc1Cl [Example 69] | ≤ 0.1 µM
NC(=O)CN(c1ccc(Cl)cn1)c1cc(C(=O)Nc2ccc(C(F)(F)F)cc2)ccc1Cl [Example 70] | ≤ 0.1 µM
COCc1cnc(N(CC(N)=O)c2cc(C(=O)Nc3ccc(OC(F)(F)F)cc3)ccc2Cl)c(Cl)c1 [Example 71, 4-chloro-3-[N-(3-chloro-5-methoxymethylpyridin-2-yl)-N-(carbamoylmethyl)amino]-N-(trifluoromethoxyphenyl)-benzamide] | ≤ 0.1 µM

The next lines start with the values.

IC50 | SMILES
≤ 0.1 µM | O=C(Nc1ccc(Cl)cc1)c1ccc(Cl)c(N(CCO)c2ncccc2Cl)c1 [Example 36, 4-chloro-N-(4-chlorophenyl)-3-[N-(3-chloropyridin-2-yl)-N-(2-hydroxyethyl)amino]-benzamide]
≤ 0.1 µM | CC(C)c1ccc(NC(=O)c2ccc(Cl)c(N(CCO)c3ncccc3Cl)c2)cc1 [Example 37, 4-chloro-3-[N-(3-chloropyridin-2-yl)-N-(2-hydroxyethyl)amino]-N-(4-isopropylphenyl)-benzamide]
≤ 0.1 µM | O=C(Nc1ccc(Cl)c(C(F)(F)F)c1)c1ccc(Cl)c(N(CCO)c2ncccc2Cl)c1 [Example 39, 4-chloro-3-[N-(3-chloropyridin-2-yl)-N-(2-hydroxyethyl)amino]-N-(4-chloro-3-trifluoromethylphenyl)benzamide]
≤ 0.1 µM | O=C(Nc1ccc(C(F)(F)F)nc1)c1ccc(Cl)c(N(CCO)c2ncccc2Cl)c1 [Example 40, 4-chloro-3-[N-(3-chloropyridin-2-yl)-N-(2-hydroxyethyl)amino]-N-(2-trifluoromethylpyridine-5-yl)benzamide]
≤ 0.1 µM | CC(C)Oc1ccc(NC(=O)c2ccc(Cl)c(N(CCO)c3ncccc3Cl)c2)cc1 [Example 41, 4-chloro-3-[N-(3-chloropyridin-2-yl)-N-(2-hydroxyethyl)amino]-N-(4-isopropyloxyphenyl)-benzamide]
≤ 0.1 µM | O=C(Nc1ccc(N2CCCCC2)c(F)c1)c1ccc(Cl)c(N(CCO)c2ncccc2Cl)c1 [Example 43, 4-chloro-3-[N-(3-chloropyridin-2-yl)-N-(2-hydroxyethyl)amino]-N-(3-fluoro-4-piperidinylphenyl)-benzamide]
≤ 0.1 µM | CC(C)(C)c1ccc(NC(=O)c2ccc(Cl)c(N(CCCO)c3ncccc3Cl)c2)cc1 [Example 45, 4-chloro-3-[N-(3-chloropyridin-2-yl)-N-(3-hydroxypropyl)amino]-N-(4-tert-butylphenyl)-benzamide]
≤ 0.1 µM | CC(C)(C)c1ccc(NC(=O)c2ccc(Cl)c(N(CC(=O)O)c3ncccc3Cl)c2)cc1 [Example 46, N-(3-chloropyridin-2-yl)-N-{2-chloro-5-[N-(4-tert-butylphenyl)carbamoyl]phenyl}-aminoacetic acid]
≤ 0.1 µM | CC(C)(C)c1ccc(NC(=O)c2ccc(Cl)c(N(CC(N)=O)c3ncccc3Cl)c2)cc1 [Example 47, 4-chloro-3-[N-(3-chloropyridin-2-yl)-N-(carbamoylmethyl)amino]-N-(4-tert-butylphenyl)-benzamide]
≤ 0.1 µM | CNC(=O)CN(c1cc(C(=O)Nc2ccc(C(C)(C)C)cc2)ccc1Cl)c1ncccc1Cl [Example 48, 4-chloro-3-[N-(3-chloropyridin-2-yl)-N-(N-methylcarbamoylmethyl)amino]-N-(4-tert-butylphenyl)-benzamide]
≤ 0.1 µM | COc1ccc(C(=O)Nc2ccc(OCC(C)C)cc2)cc1N(CCO)c1ncccc1Cl [Example 50, 3-[N-(3-chloropyridin-2-yl)-N-(2-hydroxyethyl)amino]-N-(4-isobutyloxyphenyl)-4-methoxy-benzamide]
≤ 0.1 µM | COc1ccc(C(=O)Nc2ccc(OCC(C)C)cc2)cc1N(CCO)c1ccc(C)cn1 [Example 51, N-(4-isobutyloxyphenyl)-4-methoxy-3-[N-(5-methylpyridin-2-yl)-N-(2-hydroxyethyl)amino]-benzamide]
≤ 0.1 µM | CC(C)COc1ccc(NC(=O)c2cccc(N(CCO)c3ncccc3Cl)c2)cc1 [Example 52, 3-[N-(3-chloropyridin-2-yl)-N-(2-hydroxyethyl)amino]-N-(4-isobutyloxyphenyl)-benzamide]
≤ 0.1 µM | CC(C)(C)c1ccc(NC(=O)c2cccc(N(CCO)c3ncccc3Cl)c2)cc1 [Example 53, N-(4-tert-butylphenyl)-3-[N-(3-chloropyridin-2-yl)-N-(2-hydroxyethyl)amino]-benzamide]
≤ 0.1 µM | O=C(Nc1ccc(C(F)(F)F)cc1)c1cccc(N(CCO)c2ncccc2Cl)c1 [Example 54, 3-[N-(3-chloropyridin-2-yl)-N-(2-hydroxyethyl)amino]-N-(4-trifluoromethylphenyl)-benzamide]
≤ 0.1 µM | CNC(=O)c1cc(NC(=O)c2ccc(Cl)c(N(CCO)c3ncccc3Cl)c2)ccc1OCC(C)C [Example 55, 4-chloro-3-[N-(3-chloropyridin-2-yl)-N-(2-hydroxyethyl)amino]-N-(4-isobutyloxy-3-methylcarbamoylphenyl)-benzamide]
≤ 0.1 µM | CC(C)COc1ccc(NC(=O)c2ccc(Cl)c(N(CCO)c3ncccc3Cl)c2)cc1C(=O)N(C)C [Example 56, 4-chloro-3-[N-(3-chloropyridin-2-yl)-N-(2-hydroxyethyl)amino]-N-(3-dimethylcarbamoyl-4-isobutyloxyphenyl)-benzamide]
≤ 0.1 µM | CC(C)(C)c1ccc(NC(=O)c2ccc(Cl)c(N(CC(=O)NCCO)c3ncccc3Cl)c2)cc1 [Example 57, N-(4-tert-butylphenyl)-4-chloro-3-{N-(3-chloropyridin-2-yl)-N—[N-(2-hydroxyethyl)carbamoylmethyl]amino}-benzamide]
